In PubChem BioAssay (NCI) one finds GI50 and TGI data, which are given here for twelve molecules.

Test systems include HL-60(TB) leukemia; DU-145 prostate; M14 melanoma; UO-31 renal; KM12 colon; NCI-H226 lung; T-47D breast; SF-295 CNS; CCRF-CEM leukemia; SR leukemia.
What all share (assay): inhibition of tumour cell growth, NCI panel, 48 h

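Exposure lasted 48 hours, with cells grown in 96-well plates and compounds tested at five concentrations. At the GI50, growth is halved. Definition used: TGI = concentration required for complete inhibition of growth.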

Consider `COc1ccc(C2=C(c3ccccc3)C(=O)N3CCCC3C2)cc1` (stereo not given), for which the GI50 with HL-60(TB) leukemia was 0.493 µM; with DU-145 prostate it was 4.13 µM; in the experiment with M14 melanoma, 9.54 µM; in the experiment on UO-31 renal, 2.93 µM; in the experiment with KM12 colon, 3.01 µM; in the experiment on T-47D breast, more than 52.4 µM. Besides, the GI50 is 2.11 µM with SF-295 CNS and 1.79 µM with CCRF-CEM leukemia. In addition, the TGI with HL-60(TB) leukemia was more than 63.6 µM; with DU-145 prostate, more than 100 µM; with M14 melanoma, more than 100 µM; in the experiment with UO-31 renal, more than 100 µM; in the experiment with KM12 colon, more than 100 µM; in the experiment on NCI-H226 lung it was more than 100 µM. In addition, the TGI in the experiment with T-47D breast, with SF-295 CNS and with CCRF-CEM leukemia was more than 100 µM in each case.
Consider `CCOC(=O)CCc1c(C)c2c(OC)cc(OC)cc2oc1=O`, for which the TGI with HL-60(TB) leukemia, in the experiment with M14 melanoma, in the experiment with UO-31 renal, in the experiment on KM12 colon, in the experiment on NCI-H226 lung and in the experiment with SF-295 CNS was more than 100 µM throughout.
Turning to `COC(=O)C1c2cc3c(c(O)c2CCC1(C)O)C(=O)c1c(O)cc2c(c1C3=O)OC1OC2(C)C(O)C(N(C)C)C1O` (stereo not given), the TGI in the experiment on HL-60(TB) leukemia amounted to 2.8 µM; in the experiment on DU-145 prostate, 0.561 µM; in the experiment on M14 melanoma, 5.33 µM; in the experiment with UO-31 renal it was 4.62 µM; in the experiment on KM12 colon, 1.52 µM; with NCI-H226 lung it was 0.45 µM. The TGI stood at 1.61 µM with T-47D breast and 1.87 µM in the experiment on SF-295 CNS.
For `CCOC(=O)C1=C(C)NC2SC(=O)/C(=C\c3cccc(Cl)c3)N2C1c1ccccc1` (stereo not given), the GI50 in the experiment with HL-60(TB) leukemia, in the experiment with DU-145 prostate, in the experiment with M14 melanoma, in the experiment with UO-31 renal, with KM12 colon and with NCI-H226 lung was more than 100 µM each time. For the same molecule, the GI50 with T-47D breast, in the experiment with SF-295 CNS and in the experiment on CCRF-CEM leukemia was more than 100 µM each time. For the same molecule, the TGI with HL-60(TB) leukemia, in the experiment with DU-145 prostate, with M14 melanoma, in the experiment with UO-31 renal, in the experiment with KM12 colon and in the experiment on NCI-H226 lung was more than 100 µM throughout. In addition, the TGI with T-47D breast, in the experiment on SF-295 CNS and in the experiment on CCRF-CEM leukemia was more than 100 µM in each case.
Regarding `Cc1ccc(C2=NN(c3ccc(S(=O)(=O)NC(=O)NCc4ccccc4)cc3)C(c3ccc(N(C)C)cc3)C2)c(C)c1` (stereo not given), the GI50 in the experiment on HL-60(TB) leukemia is 3.02 µM; in the experiment with DU-145 prostate it was 4.6 µM; in the experiment with M14 melanoma, 3.57 µM; with UO-31 renal, 4.27 µM; in the experiment with KM12 colon, 3.49 µM; in the experiment on NCI-H226 lung, 3.91 µM. The figures for the GI50 with T-47D breast and in the experiment on CCRF-CEM leukemia were 6.74 µM and 3.2 µM, respectively. For the same molecule, the TGI in the experiment with HL-60(TB) leukemia worked out at 11.9 µM; with DU-145 prostate, 16.6 µM; in the experiment on M14 melanoma, 23.4 µM; in the experiment on UO-31 renal, 15.7 µM; in the experiment with KM12 colon, 15.4 µM; with NCI-H226 lung, 15.9 µM. Also, the figures for the TGI with T-47D breast and in the experiment with CCRF-CEM leukemia were more than 100 µM and 89 µM, respectively.
With `NC(=O)c1c[nH]c2ncnc(N)c12`, the GI50 with HL-60(TB) leukemia is 32.3 µM; in the experiment with DU-145 prostate, 44.6 µM; with M14 melanoma, 47.9 µM; with UO-31 renal, 22.4 µM; in the experiment with KM12 colon, 24.8 µM; in the experiment on NCI-H226 lung, 67.3 µM. Besides, the GI50 in the experiment on T-47D breast is 35.3 µM; in the experiment on SF-295 CNS it was 31.1 µM; in the experiment with CCRF-CEM leukemia, 29.5 µM. For the same molecule, the TGI is more than 100 µM in the experiment with HL-60(TB) leukemia; more than 100 µM in the experiment with DU-145 prostate; more than 100 µM in the experiment with M14 melanoma; 80.9 µM in the experiment with UO-31 renal; more than 100 µM in the experiment on KM12 colon; more than 100 µM in the experiment with NCI-H226 lung. Besides, the TGI in the experiment with T-47D breast, with SF-295 CNS and in the experiment on CCRF-CEM leukemia was more than 100 µM in each case.
Turning to `CC(C)[C@@]12C[C@@H](OC(=O)COC(=O)c3ccccc3)[C@@](C)(O1)[C@@H]1CC[C@@H](C)[C@H]1[C@@H]2OC(=O)/C=C/c1ccccc1`, the GI50 with HL-60(TB) leukemia is more than 75.1 µM; in the experiment on DU-145 prostate, more than 100 µM; with M14 melanoma it was more than 100 µM; with UO-31 renal it was 0.115 µM; in the experiment on KM12 colon it was more than 100 µM; in the experiment on NCI-H226 lung, 18.7 µM. The GI50 with T-47D breast is more than 34.6 µM; with SF-295 CNS, more than 100 µM; in the experiment on CCRF-CEM leukemia it was more than 100 µM. In addition, the TGI with HL-60(TB) leukemia is more than 100 µM; with DU-145 prostate, more than 100 µM; in the experiment on M14 melanoma, more than 100 µM; in the experiment with UO-31 renal it was 1.66 µM; in the experiment with KM12 colon, more than 100 µM; in the experiment on NCI-H226 lung, more than 100 µM. The TGI with T-47D breast, in the experiment with SF-295 CNS and in the experiment with CCRF-CEM leukemia was more than 100 µM in each case.
Take `CCOC(=O)C(C(=O)OCC)=C1C=C(c2ccccc2)c2ccccc21`: the TGI in the experiment on HL-60(TB) leukemia is 92 µM; in the experiment on M14 melanoma, more than 100 µM; in the experiment on UO-31 renal, more than 100 µM; in the experiment on KM12 colon it was more than 100 µM; with NCI-H226 lung, more than 100 µM; in the experiment with SF-295 CNS, more than 100 µM. This molecule also had a TGI with CCRF-CEM leukemia of more than 100 µM.
On to `CC(=O)[O-].CC(=O)[O-].O=C([CH-]C(=O)c1ccccc1)c1ccccc1.[Nd+3].[OH3+]`, for which the GI50 in the experiment with HL-60(TB) leukemia is 7.85 µM; in the experiment with M14 melanoma it was 20.7 µM; with UO-31 renal, 17 µM; in the experiment on KM12 colon, 14 µM; in the experiment on NCI-H226 lung, 13.8 µM; with SF-295 CNS, 10.7 µM. Moreover, the TGI was 31.8 µM in the experiment with HL-60(TB) leukemia; 53 µM in the experiment on M14 melanoma; 49.3 µM with UO-31 renal; more than 100 µM with KM12 colon; 60.6 µM in the experiment with NCI-H226 lung; 35.2 µM in the experiment on SF-295 CNS.
`O=C(c1ccccc1)n1cc(/C=C/[N+](=O)[O-])c2ccccc21`: the TGI in the experiment on HL-60(TB) leukemia was 13.3 µM; with M14 melanoma it was 41 µM; in the experiment on SR leukemia it was 44.9 µM; in the experiment on UO-31 renal, 66.1 µM; in the experiment with KM12 colon, 32.5 µM; in the experiment on SF-295 CNS, more than 100 µM. The molecule further had a TGI with CCRF-CEM leukemia of 35.1 µM.
On to `CC(=O)OCc1nnn2c1C(OC(C)=O)CC2` (stereo not given), for which the TGI in the experiment with M14 melanoma, with SR leukemia, in the experiment with UO-31 renal, in the experiment on KM12 colon, with NCI-H226 lung and in the experiment with SF-295 CNS was more than 100 µM in each case.
`C[C@@H](NC1CCCC[C@@H]1O)c1ccccc1` (stereo not given in full): the TGI in the experiment on HL-60(TB) leukemia, in the experiment with M14 melanoma, with UO-31 renal, with KM12 colon, in the experiment on NCI-H226 lung and with SF-295 CNS was more than 100 µM in each case. The molecule also registered a TGI in the experiment with CCRF-CEM leukemia of more than 100 µM.
